The values that follow come from ChEMBL document CHEMBL1145261, “Design and synthesis of novel diphenacoum-derived, conformation-restricted vitamin K 2,3-epoxide reductase inhibitors” (Bioorg Med Chem Lett, 2005).

In the test the target is T1, Vitamin K epoxide reductase complex subunit 1 (Bos taurus, UniProt Q6B4J2).
T1 sequence (Q6B4J2 whole entry): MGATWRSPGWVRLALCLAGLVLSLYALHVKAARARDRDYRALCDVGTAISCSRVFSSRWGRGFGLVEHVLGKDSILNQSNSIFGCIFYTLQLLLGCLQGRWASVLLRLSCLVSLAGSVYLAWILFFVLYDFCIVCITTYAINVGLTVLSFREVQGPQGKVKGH
Briefly: Inhibitory concentration against beef liver Vitamin K epoxide reductase (vitamin K 2,3-epoxide reductase).

SMILES strings stand for the structures.

`O=c1oc2ccccc2c(O)c1C1CC(c2ccc(-c3ccccc3)cc2)Oc2ccccc21` (configuration not stated): the IC50 (in general, the concentration that gives 50% inhibition) came out at 0.04 µM. In turn, `O=c1oc2ccccc2c2c1C1CC(c3ccc(-c4ccccc4)cc3)(Oc3ccccc31)O2` (configuration not stated) gave an IC50 of 1 µM.
